The text below walks through data of patent US20240344026A1, “Methods to Activate Gamma Delta T cells for Antibody Dependent Cellular Cytotoxicity” (Intellistem, Inc., priority 2023, published 2024).

Holding throughout (assay type): cell-based
The test system of assay [1] is Gamma Delta T cells. Put plainly: Differentiation of Gamma Delta T cells by CD45RA and CD27 expression. An excerpt: The present inventors divided the T cells into naive, central memory, effector memory and terminally differentiated Gamma Delta T cells based on expression of CD45RA and CD27.
Assay [2] has as its system tumor cell line Daudi. Put plainly: Cytotoxicity assay. From the text:
To directly determine the anti-tumor activity of Gamma Delta T cells against the tumor cell line Daudi, the present inventors performed a cytotoxicity assay on day 10 of cultivation comparing the prior art (R10F) and preferred embodiment of the present invention (Ko-Op). For this, Alpha Beta T cells and NKp46+ cells were paramagnetically depleted from the cell suspension in order to isolate the Gamma Delta T cells on day 10. The cell composition before and after depletion is shown FIG. 2A.
The present inventors next performed the cytotoxicity assay with the different cultivated MNC. To be able to compare the methods more clearly, the present inventors calculated the lytic units per 10^6 effector cells.

Assay [3] relates to Gamma Delta T cells. Put plainly: Proliferation rate of Gamma Delta T cells on ex vivo stimulation of MNC. Particulars: changed stimulant vs standard protocol; zoledronate pulse 100 μM 4 h (day 7); IL-15 10 ng/ml, IL-2 1000 U/ml. On the procedure:
Cell cultures were performed with peripheral blood obtained from healthy adult donors. Peripheral blood mononuclear cells (MNC) were isolated by density gradient centrifugation with Biocoll (Biochrom, Darmstand, Germany/Bio&SELL, Feucht, Germany). MNC were incubated up to 17 days at 37° C. and 5% CO2.
For cultivation, MNC at a concentration of 5.0E+05/ml were cultured in 50 ml cell culture flasks (Sarstedt, Nuembrecht, Germany) using medium consisting of OpTmizer™ CTSTM T-Cell Expansion Basal Medium, OpTmizer™ CTSTM T-Cell Expansion Supplement (Gibco/Thermo Fisher, Waltham, USA) and 1% 200 mM L-Glutamin. 10 μM Zoledronate were added on day 0 and 1000 U/ml IL-2 were added on day 2. On days 4, 7, 9, 11 and 14 half of the medium was removed and replaced by fresh medium containing 2× 1000 U/ml IL-2 for a final concentration of 1000 U/ml. Cells were not split at any time. From day 4 on cell culture flasks were shaken at 250 rpm. For pulsing zoledronate, 100 μM Zol were added on day 0. […]
Cell counts and cell viability were established using a hemocytometer and the trypan blue exclusion method. Cell count and proliferation rate of Gamma Delta T cells was calculated on the basis of the cell number of the MNC and the percentage of Gamma Delta T cells on the MNC determined by flow cytometry. […]

The test system of assay [4] is cytoplasmic perforin of Gamma Delta T cells. Put plainly: Cytoplasmic perforin staining, flow cytometry. On the procedure: To evaluate the activity of stimulated Gamma Delta T cells, cytoplasmic perforin and IFN γ were stained every three to four days and Δ MFI was measured by flow cytometry.
The mark [5] stands for this setting: IL-15 instead of IL-2, combined with pulsing zoledronate.
Where [6] appears, read: changed stimulant vs standard protocol.
Where [7] appears, read: changed stimulant vs standard protocol, without combination of modifications.

Turning to “IL-15: interleukin used at 10 ng/ml in place of IL-2”, the “percentage of effector Gamma Delta T cells (TEM)” value in assay [1] (IL-15 instead of IL-2) and in assay [1] (setting [5]) was “reduced percentage” each time. The “percentage of central memory Gamma Delta T cells (TCM)” value in assay [1] (setting [5]) and in assay [1] (setting [6]) was “elevated percentage” each time. Besides, the “lytic units per 10^6 effector cells” value in assay [2] (with zoledronate pulse, without antibody, vs zoledronate pulse without modification of the interleukins) is reported as “an increase”. For the same compound, the “proliferation rate of Gamma Delta T cells” value in assay [3] was “significantly lower”. For the same compound, the cytoplasmic perforin entry is recorded as “significant reduction” in assay [4] (IL-15 instead of IL-2, with zoledronate pulse) and “significant reduction” in assay [4] (setting [7]).
In the case of `O=P(O)(O)C(O)(Cn1ccnc1)P(=O)(O)O` [zoledronate, reference compound], in assay [1] (setting [6]), the “percentage of central memory Gamma Delta T cells (TCM)” value was “more TCM”. Besides, the “lytic units per 10^6 effector cells” value in assay [2] (without therapeutic antibodies, vs standard protocol) is recorded as “significant increase”. In addition, the “proliferation rate of Gamma Delta T cells” value in assay [3] is recorded as “significant lower proliferation rate”. Besides, in assay [4] (setting [7]), the cytoplasmic perforin entry is recorded as “did not lead to any significant change”.
